Assay results as given in patent publication EP2272817A1, “PAI-1 INHIBITOR” (Institute of Medicinal Molecular Design, Inc., priority 2008, dated 2009).

Target: recombinant human PAI-1 (Homo sapiens, UniProt P05121)
Test: Test Example 2: Human PAI-1 Inhibitory Activity (pH 7.4 HEPES buffer, 10 minutes incubation with two-chain tPA)
Type: biochemical
Set-up: purchased Molecular Innovations, Inc
Conditions: read-out: Inhibition Rate of PAI-1 Activity (%)
Experimental: 0.1 M HEPES, 0.1 M NaCl. 1 mM EDTA. 0.1 % Polyethylene glycol 8,000 (Hampton Research Corporation),
2 mM Dimethyldecylphoshine oxide [Apo-10] (Fluka Corporation)

Sequence of recombinant human PAI-1 (P05121 24-402): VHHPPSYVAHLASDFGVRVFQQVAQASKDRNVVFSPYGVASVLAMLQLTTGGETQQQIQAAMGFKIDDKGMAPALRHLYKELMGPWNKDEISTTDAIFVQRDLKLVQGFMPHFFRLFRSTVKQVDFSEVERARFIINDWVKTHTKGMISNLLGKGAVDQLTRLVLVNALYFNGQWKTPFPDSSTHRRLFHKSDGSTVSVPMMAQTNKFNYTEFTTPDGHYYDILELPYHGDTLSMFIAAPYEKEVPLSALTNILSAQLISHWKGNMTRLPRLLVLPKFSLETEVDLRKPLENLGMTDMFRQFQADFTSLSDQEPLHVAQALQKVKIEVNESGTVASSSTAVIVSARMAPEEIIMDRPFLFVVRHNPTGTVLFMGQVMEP

Compound	inhibition at 1 µM	inhibition at 3 µM	inhibition at 10 µM	inhibition at 25 µM	inhibition at 0.1 µM	inhibition at 0.3 µM
Cc1cccc(-c2ccc(OCC(=O)O)c(Oc3ccc(C(C)(C)C)cc3)c2)c1 [Compound 319]	17%	70%			0%	9%
CCCCCOc1ccc(-c2ccc(Cl)cc2)cc1N(CCCCc1ccccc1)C(=O)C(=O)O [Compound 361]	68%	97%			9%	5%
CC(C)(C)c1ccc(Oc2cc(-c3cccc(OC(F)(F)F)c3)ccc2OCC(=O)O)cc1 [Compound 331]	83%	98%			2%	1%
CCCCCOc1cc(-c2ccc(C(F)(F)F)cc2)ccc1N(CCCCc1ccccc1)C(=O)C(=O)O [Compound 392]	77%	> 99%			7%	14%
CCCCC(Oc1ccc(-c2cccc(C)c2)cc1Oc1ccc(C(C)(C)C)cc1)C(=O)O (stereo not shown) [Compound 321]	86%	94%			3%	15%
CC(C)(C)c1ccc(Oc2cc(-c3ccc(OC(F)(F)F)cc3)ccc2CC(=O)O)cc1 [Compound 334]	21%	87%			0%	1%
CCCCCOc1ccc(-c2cccc(OC(F)(F)F)c2)cc1N(CCCCc1ccccc1)C(=O)C(=O)O [Compound 391]	69%	89%			10%	8%
CCCCC(Oc1cc(-c2ccc(OC(F)(F)F)cc2)ccc1OCCCCc1ccc(Cl)cc1)C(=O)O (stereo not shown) [Compound 325]	85%	91%			11%	5%
CCCCCOc1cc(-c2ccc(OC(F)(F)F)cc2)cc(OCc2ccc(C(C)(C)C)cc2)c1OCC(=O)O [Compound 301]	96%	97%			15%	25%
CCCCCCCCCCOc1ccc(-c2ccc(OC(F)(F)F)cc2)cc1N(CCCCc1ccccc1)C(=O)C(=O)O [Compound 365]	97%	92%			41%	97%
CCCCCOc1ccc(-c2ccc(F)cc2)cc1N(CCCCc1ccccc1)C(=O)C(=O)O [Compound 359]	26%	96%			1%	7%
CCCCCCCCCOc1ccc(N(CCCCc2ccccc2)C(=O)C(=O)O)cc1-c1ccc(OC(F)(F)F)cc1 [Compound 387]	> 99%	> 99%			66%	> 99%
CCCCCOc1ccc(-c2ccc(OC(F)(F)F)cc2)cc1N(CCCCOc1ccccc1)C(=O)C(=O)O [Compound 374]	57%	> 99%			5%	16%
CC(C)(C)c1ccc(Oc2ccc(-c3cccc(C(F)(F)F)c3)cc2OCC(=O)O)cc1 [Compound 314]	22%	93%			0%	5%

Other lines, results leading:

inhibition at 1 µM	inhibition at 3 µM	inhibition at 10 µM	inhibition at 25 µM	inhibition at 0.1 µM	inhibition at 0.3 µM	Compound
73%	95%	94%	90%			CC(C)(C)c1ccc(COc2ccc(N3CCN(c4ccc(OC(F)(F)F)cc4)CC3)cc2/C=C/C(=O)O)cc1 [Compound 418]
39%	61%			11%	11%	O=C(O)CCCCCCOc1ccc(-c2ccc(OC(F)(F)F)cc2)cc1N(CCCCc1ccccc1)C(=O)C(=O)O [Compound 633]
69%	> 99%			12%	14%	O=C(O)/C=C/c1ccc(-c2ccc(OC(F)(F)F)cc2)cc1OCCCSc1ccccc1 [Compound 489]
98%	98%			33%	71%	CCC(CC)Oc1ccc(-c2ccc(CCC(=O)O)c(Oc3ccc(C(C)(C)C)cc3)c2)cc1 [Compound 522]
67%	> 99%			9%	8%	CC(C)(C)[C@H]1CC[C@H](N(C(=O)C(=O)O)c2ccc(-c3ccc(OC(F)(F)F)cc3)cc2)CC1 [Compound 665]
73%	94%			0%	1%	O=C(O)/C=C/c1cc(-c2ccc(OC(F)(F)F)cc2)ccc1OCCCCCOc1ccc(-c2ccc(OC(F)(F)F)cc2)cc1/C=C/C(=O)O [Compound 543]
11%	96%			0%	0%	Cc1ccc(-c2ccc(OCC(=O)O)c(Oc3ccc(C(C)(C)C)cc3)c2)cc1 [Compound 444]
38%	> 99%			0%	4%	CCCCCOc1cc(-c2ccc(OC(F)(F)F)cc2)cc(OCCCCC)c1OCC(=O)O [Compound 424]
95%	> 99%			20%	50%	CC(C)(C)c1ccc(Sc2cc(-c3ccc(OC(F)(F)F)cc3)ccc2CCC(=O)O)cc1 [Compound 517]
99%	> 99%			15%	20%	CCCCCN(C(=O)C(=O)O)c1cc(-c2ccc(OC(F)(F)F)cc2)ccc1OCCCOc1ccccc1 [Compound 657]
76%	> 99%			7%	8%	CCCCc1ccc(-c2ccc(OCC(=O)O)c(Oc3ccc(C(C)(C)C)cc3)c2)cc1 [Compound 443]
41%	93%	98%	> 99%			CC(C)(C)c1ccc(COc2ccc(N3CCN(c4ccc(OC(F)(F)F)cc4)CC3)cc2CCC(=O)O)cc1 [Compound 419]
89%	> 99%			4%	11%	CCC(CC)Oc1ccc(-c2ccc(OCC(=O)O)c(Oc3ccc(C(C)(C)C)cc3)c2)cc1 [Compound 447]
73%	> 99%			0%	7%	CC(C)(C)c1ccc(Oc2cc(-c3cc(Cl)ccc3Cl)ccc2CCC(=O)O)cc1 [Compound 484]
60%	> 99%			7%	4%	O=C(O)C(=O)N(CCCCc1ccccc1)c1cc(-c2ccc(OC(F)(F)F)cc2)ccc1OCCCCCO [Compound 676]
> 99%	> 99%			4%	19%	CCCCCOc1cc(N(CCCCc2ccccc2)C(=O)C(=O)O)ccc1-c1ccc(OC(F)(F)F)cc1 [Compound 654]
> 99%	> 99%			14%	72%	CC(C)c1ccc(-c2ccc(/C=C/C(=O)O)c(Sc3ccc(C(C)(C)C)cc3)c2)cc1 [Compound 520]
